# Laboratory results published in patent US9179694B2, “Method and composition for enhancing milk production and milk component concentrations” (PURINA ANIMAL NUTRITION LLC, priority 2003, dated 2015).
# Experiment: Dry matter feed intake in sorbitol feeding trials
# Format: in vivo, Holstein cows
# Details: for increase in dry matter feed intake: Pre-Partum Trial #1 (75 g/day wk −3..−1 only) versus Control Trial #1
# Description: To determine the dry matter weight (or dry matter basis or dry basis) of a particular sample, the sample is first weighed. The weighed sample is then dried in an oven at a temperature that is adequate to drive off moisture from the sample without degrading the sample components, such as a temperature ranging from about 100° C. to about 110° C. The oven drying is continued until the weight of the dried sample remains constant, despite additional oven drying. During the pre-partum period, for all cows utilized in Example One or Example Two, the pre-partum control feed, as modified to include any sorbitol indicated above for the different trials, was placed in the feeding troughs of the different cows participating in the different trials once daily in the morning. Thereafter, these different pre-partum feeds (the pre-partum control feed, including any incorporated sorbitol dosage of a particular trial during the pre-partum period) of the different trials were lightly stirred, separately and individually, in front of the cows of the different trials three times per day during the pre-partum period to encourage additional feed ingestion by the cows. Leftover rations from the previous day's feeding were collected and weighed from each feeding trough during the pre-partum period, prior to feeding the test cows on a subsequent day. The cows of the different trials received a sufficient amount of the pre-partum to ensure at least about ten weight percent of the pre-partum feeds of the different trials remained in the feeding troughs of each trial each day of the pre-partum period, based on the amount of the different pre-partum feeds of the different trials provided at the beginning of each day. Feed refusals were measured daily during the pre-partum period, and water was supplied ad libitum. During the early post-partum period, for all cows utilized in Example One or Example Two, the first post-partum control feed, as modified to include any sorbitol indicated above for the different trials, was placed in the feeding troughs of the different cows participating in the different trials once daily in the morning. Thereafter, these first post-partum feeds (the first post-partum control feed, including any incorporated sorbitol dosage of a particular trial during the early post-partum period) of the different trials were lightly stirred, separately and individually, in front of the cows of the different trials three times per day during the early post-partum period to encourage additional feed ingestion by the cows. Leftover rations from the previous day's feeding were collected and weighed from each feeding trough during the early post-partum period, prior to feeding the test cows on a subsequent day. The cows of the different trials received a sufficient amount of the first post-partum feed to ensure at least about ten weight percent of the first post-partum feeds of the different trials remained in the feeding troughs of each trial each day of the early post-partum period, based on the amount of the different first post-partum feeds of the different trials provided at the beginning of each day. Feed refusals were measured daily during the early post-partum period, and water was supplied ad libitum. […] Thereafter, the second post-partum control feed were lightly stirred, separately and individually, in front of the cows of the different trials three times per day during the weeks +5 through +8 to encourage additional feed ingestion by the cows. Leftover rations from the previous day's feeding were collected and weighed from each feeding trough during weeks +5 through +8, prior to feeding the test cows on a subsequent day. […]
compound,measurement,setting,value
OC[C@@H](O)[C@@H](O)[C@H](O)[C@@H](O)CO [sorbitol],Dry Matter Feed Intake,"Pre-Partum Trial #1 (75/0/0 g/day in wk −3..−1/+1..+4/+5..+8), multiparious cows, weeks +1 through +8",44.5 lbs/day
same,Dry Matter Feed Intake,"Pre-Partum Trial #1 (75/0/0 g/day in wk −3..−1/+1..+4/+5..+8), multiparious cows, weeks −3 through −1",29.9 lbs/day
same,Dry Matter Feed Intake,"Pre-Partum Trial #1 (75/0/0 g/day in wk −3..−1/+1..+4/+5..+8), primiparious cows, weeks +1 through +8",34.2 lbs/day
same,Dry Matter Feed Intake,"Pre-Partum Trial #1 (75/0/0 g/day in wk −3..−1/+1..+4/+5..+8), primiparious cows, weeks −3 through −1",17.8 lbs/day
same,increase in dry matter feed intake,"multiparious cows, weeks +1 through +8",+9.6%
same,increase in dry matter feed intake,"primiparious cows, weeks +1 through +8",+7.9%
same,Dry Matter Intake,"Pre-Partum Trial #2 (75/0/100 g/day in wk −3..−1/+1..+4/+5..+8), multiparious cows, week +1",32.7 lbs/day
same,Change in Dry Matter Feed Intake,"Pre-Partum Trial #2 (75/0/100 g/day in wk −3..−1/+1..+4/+5..+8), multiparious cows, week +1 versus −1",1.97 lbs/day
same,Dry Matter Intake,"Pre-Partum Trial #2 (75/0/100 g/day in wk −3..−1/+1..+4/+5..+8), multiparious cows, week +2",42.5 lbs/day
same,Dry Matter Intake,"Pre-Partum Trial #2 (75/0/100 g/day in wk −3..−1/+1..+4/+5..+8), multiparious cows, week +3",46.2 lbs/day
same,Dry Matter Intake,"Pre-Partum Trial #2 (75/0/100 g/day in wk −3..−1/+1..+4/+5..+8), multiparious cows, week +4",50.1 lbs/day
same,Dry Matter Intake,"Pre-Partum Trial #2 (75/0/100 g/day in wk −3..−1/+1..+4/+5..+8), multiparious cows, week +5",52.4 lbs/day
same,Dry Matter Intake,"Pre-Partum Trial #2 (75/0/100 g/day in wk −3..−1/+1..+4/+5..+8), multiparious cows, week +6",53.9 lbs/day
same,Dry Matter Intake,"Pre-Partum Trial #2 (75/0/100 g/day in wk −3..−1/+1..+4/+5..+8), multiparious cows, week +7",56.1 lbs/day
same,Dry Matter Intake,"Pre-Partum Trial #2 (75/0/100 g/day in wk −3..−1/+1..+4/+5..+8), multiparious cows, week +8",53.8 lbs/day
same,Dry Matter Intake,"Pre-Partum Trial #2 (75/0/100 g/day in wk −3..−1/+1..+4/+5..+8), multiparious cows, week −1",30.7 lbs/day
same,Dry Matter Intake,"Pre-Partum Trial #2 (75/0/100 g/day in wk −3..−1/+1..+4/+5..+8), multiparious cows, week −2",33.5 lbs/day
same,Change in Dry Matter Feed Intake,"Pre-Partum Trial #2 (75/0/100 g/day in wk −3..−1/+1..+4/+5..+8), multiparious cows, week −2 versus −1",−2.88 lbs/day
same,Dry Matter Intake,"Pre-Partum Trial #2 (75/0/100 g/day in wk −3..−1/+1..+4/+5..+8), multiparious cows, week −3",30.9 lbs/day
same,Dry Matter Intake,"Pre-Partum Trial #2 (75/0/100 g/day in wk −3..−1/+1..+4/+5..+8), multiparious cows, weeks +1 through +4",42.9 lbs/day
same,Dry Matter Intake,"Pre-Partum Trial #2 (75/0/100 g/day in wk −3..−1/+1..+4/+5..+8), multiparious cows, weeks +1 through +8",48.4 lbs/day
same,Dry Matter Intake,"Pre-Partum Trial #2 (75/0/100 g/day in wk −3..−1/+1..+4/+5..+8), multiparious cows, weeks +5 through +8",54.2 lbs/day
same,Dry Matter Intake,"Pre-Partum Trial #2 (75/0/100 g/day in wk −3..−1/+1..+4/+5..+8), multiparious cows, weeks −3 through −1",31.8 lbs/day
same,decrease in dry matter feed intake,"Pre-Partum Trial #2 (75 g/day pre-partum) versus Control Trial #2, multiparious cows, pre-partum period (weeks −3 through −1)",7.0%
same,Dry Matter Intake,"Pre/Post Trial #1 (150/125/100 g/day in wk −3..−1/+1..+4/+5..+8), multiparious cows, week +1",36.6 lbs/day
same,Dry Matter Feed Intake,"Pre/Post Trial #1 (150/125/100 g/day in wk −3..−1/+1..+4/+5..+8), multiparious cows, week +1, two-trial comparison with Control Trial #2 (Table 22)",36.7 lbs/day
same,Change in Dry Matter Feed Intake,"Pre/Post Trial #1 (150/125/100 g/day in wk −3..−1/+1..+4/+5..+8), multiparious cows, week +1 versus −1",3.37 lbs/day
same,Change in Dry Matter Feed Intake,"Pre/Post Trial #1 (150/125/100 g/day in wk −3..−1/+1..+4/+5..+8), multiparious cows, week +1 versus −1, two-trial comparison with Control Trial #2 (Table 22)",3.35 lbs/day
same,Dry Matter Intake,"Pre/Post Trial #1 (150/125/100 g/day in wk −3..−1/+1..+4/+5..+8), multiparious cows, week +2",45.3 lbs/day
same,Dry Matter Feed Intake,"Pre/Post Trial #1 (150/125/100 g/day in wk −3..−1/+1..+4/+5..+8), multiparious cows, week +2, two-trial comparison with Control Trial #2 (Table 22)",45.6 lbs/day
same,Dry Matter Intake,"Pre/Post Trial #1 (150/125/100 g/day in wk −3..−1/+1..+4/+5..+8), multiparious cows, week +3",48.5 lbs/day
same,Dry Matter Feed Intake,"Pre/Post Trial #1 (150/125/100 g/day in wk −3..−1/+1..+4/+5..+8), multiparious cows, week +3, two-trial comparison with Control Trial #2 (Table 22)",48.8 lbs/day
same,Dry Matter Intake,"Pre/Post Trial #1 (150/125/100 g/day in wk −3..−1/+1..+4/+5..+8), multiparious cows, week +4",51.2 lbs/day
same,Dry Matter Feed Intake,"Pre/Post Trial #1 (150/125/100 g/day in wk −3..−1/+1..+4/+5..+8), multiparious cows, week +4, two-trial comparison with Control Trial #2 (Table 22)",51.5 lbs/day
same,Dry Matter Intake,"Pre/Post Trial #1 (150/125/100 g/day in wk −3..−1/+1..+4/+5..+8), multiparious cows, week +5",53.9 lbs/day
same,Dry Matter Feed Intake,"Pre/Post Trial #1 (150/125/100 g/day in wk −3..−1/+1..+4/+5..+8), multiparious cows, week +5, two-trial comparison with Control Trial #2 (Table 22)",54.2 lbs/day
same,Dry Matter Intake,"Pre/Post Trial #1 (150/125/100 g/day in wk −3..−1/+1..+4/+5..+8), multiparious cows, week +6",53.7 lbs/day
same,Dry Matter Feed Intake,"Pre/Post Trial #1 (150/125/100 g/day in wk −3..−1/+1..+4/+5..+8), multiparious cows, week +6, two-trial comparison with Control Trial #2 (Table 22)",54.1 lbs/day
same,Dry Matter Intake,"Pre/Post Trial #1 (150/125/100 g/day in wk −3..−1/+1..+4/+5..+8), multiparious cows, week +7",54.5 lbs/day
